From paper PMC11313180 (International Journal of Molecular Sciences, 2024)
Like-named read-outs stand apart in the source and are kept apart here. Each block holds one compound with its values, some of them ahead of it.

Assays:
[1] = biological target: T1, HDAC8 (Homo sapiens, UniProt Q9BY41); test: Enzyme HDAC inhibition assay, HDAC8
T1 sequence (Q9BY41 1-377): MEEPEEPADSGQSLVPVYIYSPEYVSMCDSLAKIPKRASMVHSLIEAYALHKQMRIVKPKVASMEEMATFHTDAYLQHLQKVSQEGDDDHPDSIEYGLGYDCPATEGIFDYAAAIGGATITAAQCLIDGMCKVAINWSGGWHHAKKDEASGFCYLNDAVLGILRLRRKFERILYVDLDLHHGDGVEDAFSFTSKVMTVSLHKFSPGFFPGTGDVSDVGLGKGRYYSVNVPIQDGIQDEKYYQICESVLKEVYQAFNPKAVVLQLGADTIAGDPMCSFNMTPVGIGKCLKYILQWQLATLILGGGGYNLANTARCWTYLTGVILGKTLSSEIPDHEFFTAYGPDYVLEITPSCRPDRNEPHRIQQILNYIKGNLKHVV
Description: (§4) All human recombinant enzymes were purchased from Reaction Biology Corp. (Malvern, PA, USA).

[2] = biological target: HDAC2 (Homo sapiens, UniProt Q92769); test: Enzyme HDAC inhibition assay, HDAC2
Description: as §4

[3] = tested on: HDAC8; conditions: ref [21], cited from earlier work; for IC50: obtained by fitting Lechner et al. source data to a sigmoidal concentration–effect model, read-out: IC50 HDAC 8, Lechner et al.
[4] = tested on: HDAC2; conditions: obtained by fitting Lechner et al. source data to a sigmoidal concentration–effect model; ref [21]; read-out: IC50 HDAC 2, Lechner et al.; cited from earlier work
[5] = biological target: T2, HDAC4 (Homo sapiens, UniProt P56524); test: Enzyme HDAC inhibition assay, HDAC4; type: biochemical; conditions: IC50 ± SEM; three experiments in duplicates; read-out: IC50 HDAC 4
T2 construct: purchased Reaction Biology Corp. KDA-21-279
Description: as §4

[6] = biological target: T3, HDAC6 (Homo sapiens, UniProt Q9UBN7); test: Enzyme HDAC inhibition assay, HDAC6
T3 sequence (Q9UBN7 1-1215): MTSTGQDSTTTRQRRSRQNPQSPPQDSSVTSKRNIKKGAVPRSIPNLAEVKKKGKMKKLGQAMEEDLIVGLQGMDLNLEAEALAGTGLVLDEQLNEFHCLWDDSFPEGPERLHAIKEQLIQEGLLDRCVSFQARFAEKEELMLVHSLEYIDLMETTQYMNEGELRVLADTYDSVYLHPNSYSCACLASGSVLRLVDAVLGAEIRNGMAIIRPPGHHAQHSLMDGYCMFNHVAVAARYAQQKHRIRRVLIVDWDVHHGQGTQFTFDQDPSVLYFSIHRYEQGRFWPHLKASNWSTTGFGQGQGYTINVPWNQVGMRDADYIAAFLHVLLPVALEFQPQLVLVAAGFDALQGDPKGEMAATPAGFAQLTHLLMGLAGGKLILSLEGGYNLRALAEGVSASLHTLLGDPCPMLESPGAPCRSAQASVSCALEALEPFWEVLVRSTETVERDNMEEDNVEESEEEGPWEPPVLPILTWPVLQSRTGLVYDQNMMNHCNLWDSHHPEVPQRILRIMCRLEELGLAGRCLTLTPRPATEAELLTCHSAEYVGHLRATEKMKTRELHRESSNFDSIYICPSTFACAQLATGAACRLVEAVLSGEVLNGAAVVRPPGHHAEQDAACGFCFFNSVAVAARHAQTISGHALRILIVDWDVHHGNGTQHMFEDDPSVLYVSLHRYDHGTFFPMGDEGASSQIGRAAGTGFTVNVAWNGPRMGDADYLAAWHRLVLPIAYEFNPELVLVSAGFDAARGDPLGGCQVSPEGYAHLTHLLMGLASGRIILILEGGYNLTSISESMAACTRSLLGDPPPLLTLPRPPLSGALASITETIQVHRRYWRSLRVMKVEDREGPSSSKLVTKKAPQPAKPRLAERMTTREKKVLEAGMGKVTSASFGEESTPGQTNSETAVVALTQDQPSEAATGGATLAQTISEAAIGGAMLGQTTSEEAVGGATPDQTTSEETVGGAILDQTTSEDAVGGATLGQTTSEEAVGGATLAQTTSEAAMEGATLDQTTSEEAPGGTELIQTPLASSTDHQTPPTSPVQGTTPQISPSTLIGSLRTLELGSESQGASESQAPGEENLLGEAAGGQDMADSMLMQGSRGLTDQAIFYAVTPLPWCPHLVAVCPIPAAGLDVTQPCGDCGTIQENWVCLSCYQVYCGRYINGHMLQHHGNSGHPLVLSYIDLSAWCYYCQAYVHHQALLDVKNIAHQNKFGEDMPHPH
Description: as §4

[7] = tested on: HDAC6; conditions: ref [21], cited from earlier work
[8] = tested on: T47D; test: MTT cell viability assay, T47D; type: cell-based, human; conditions: 120 h; IC50 ± SEM; read-out: IC50 T-47D, 120 h MTT assay
Description: (§1) MTT assays were performed as previously described. […] After incubation time, medium was replaced by MTT (solution of 5 mg/mL 3-(4,5-dimethylthiazol-2-yl)-2,5-diphenyl-tetrazoliumbromidin in phosphate buffered saline, Serva, Heidelberg, Germany).

[9] = tested on: class I/IIb HDAC activity in T47D cells; test: cells; type: cell-based, human; conditions: 48 h, read-out: IC50 Cellular HDAC Assay
Description: The cellular HDAC assay was performed based on an assay published by Heltweg and Jung and Ciossek et al.. Breast cancer cell line T-47D (12,000 c/w) was seeded in 96-well tissue culture plates (Corning, Kaiserslautern, Germany) in a total volume of 90 µL of culture medium. After 24 h, cells were incubated 48 h with increasing concentrations of a-lipoic acid. The reaction was started by adding 10 µL of 3 mM Boc-Lys(Ac)-AMC (Bachem, Bubensdorf, Switzerland) and again incubated for 3 h under cell culture conditions. […]

[10] = tested on: MCF-7; test: MTT cell viability assay, MCF-7; type: cell-based, human; conditions: 120 h; IC50 ± SEM; read-out: IC50 MCF-7, 120 h MTT assay
Description: as §1

[11] = tested on: MDA-MB-231; test: MTT cell viability assay, MDA-MB-231; type: cell-based, human; conditions: 120 h; IC50 ± SEM; read-out: IC50 MDA-MB-231, 120 h MTT assay
Description: MTT assays were performed as previously described. Cell numbers plated differed depending on each incubation time: MDA-MB-231 5000 c/w, MCF-7 5000 c/w (72 h) and 3000 c/w (120 h), T-47D 10,000 c/w (72 h) and 5000 c/w /120 h). After incubation time, medium was replaced by MTT (solution of 5 mg/mL 3-(4,5-dimethylthiazol-2-yl)-2,5-diphenyl-tetrazoliumbromidin in phosphate buffered saline, Serva, Heidelberg, Germany). After 10 min (MCF-7), 20 min (MDA-MB-231), and 30 min (T47D) and dissolving in DMSO (VWR, Langenfeld, Germany), absorbance was measured at 544 nm and 690 nm in a FLUOstar microplate reader (BMG LabTech, Offenburg, Germany).

[12] = tested on: T47D; test: Immunoblotting, T47D; type: cell-based, human; conditions: 48 h
Description: (§2) A quantity of 20 or 40 µg of total protein as well as, from PageRuler Prestained Protein Ladder, 10–180 kDA (Thermo Scientific, Wesel, Germany), were resolved by SDS-Page (12% polyacrylamide gel) and transferred to polyvinylidene fluoride membrane (Millipore Corporation, Billerica, MA, USA). Blots were incubated with primary antibodies against acetylated a -tubulin (Cat. No. sc-23950), a -tubulin (Cat. No. sc-8035) (Santa Cruz Biotechnology, Heidelberg, Germany), acetyl histone h3 (Cat. No. 39140) and histone H3 (Cat. No. NB100-1669), ß-actine (Cat. No. sc-47778), p21 (AF1047), c-myk (Cat. No. MAB3696), APAF1 (Cat. No. MAB868), BIM (Cat. No. NBP1-76936), FOXO1 (Cat. No. C29H4), BCL-2 (Cat. No. AF810), and survivin (Cat. No. AF886). After another one-hour incubation with the appropriate HRP-conjugated secondary antibody, proteins were visualized by Intas Imager (Intas, Göttingen, Germany) using luminol reagent (Santa Cruz Biotechnology, Heidelberg, Germany).

[13] = tested on: MCF-7; test: Immunoblotting, MCF-7; type: cell-based, human; conditions: 48 h
Description: as §2

[14] = tested on: caspase 3/7 in T47D cells; test: Caspase 3/7 activation assay, T47D; type: cell-based, human; conditions: 0.5 mM or 1 mM, 24 h
Description: (§3) To analyze the compound-induced activation of capases 3 and 7, the CellEvent caspase 3/7 green detection reagent (Thermo Scientific, Wesel, Germany) was used according to the manufacturer’s instructions. […] After 24 h incubation, medium was removed, and cells were stained with 50 µL of CellEvent caspase 3/7 green detection reagent (2 µM in PBS supplemented with 5% heat-inactivated FBS). Cells were incubated for 30 min at 37 °C in a humidified incubator before imaging by using the Thermo Fisher ArrayScan XTI high content screening (HCS) system with a 10× magnification (Thermo Scientific). Hoechst 33342 was added for nuclei staining.

[15] = tested on: caspase 3/7 in MCF-7 cells; test: Caspase 3/7 activation assay, MCF-7; type: cell-based, human; conditions: 0.5 mM or 1 mM, 24 h
Description: as §3

[16] = obtained by fitting Lechner et al. source data to a sigmoidal concentration–effect model, read-out: IC50 HDAC 6, Lechner et al.

Sequence of HDAC2 (Homo sapiens, UniProt Q92769) (Q92769 whole entry): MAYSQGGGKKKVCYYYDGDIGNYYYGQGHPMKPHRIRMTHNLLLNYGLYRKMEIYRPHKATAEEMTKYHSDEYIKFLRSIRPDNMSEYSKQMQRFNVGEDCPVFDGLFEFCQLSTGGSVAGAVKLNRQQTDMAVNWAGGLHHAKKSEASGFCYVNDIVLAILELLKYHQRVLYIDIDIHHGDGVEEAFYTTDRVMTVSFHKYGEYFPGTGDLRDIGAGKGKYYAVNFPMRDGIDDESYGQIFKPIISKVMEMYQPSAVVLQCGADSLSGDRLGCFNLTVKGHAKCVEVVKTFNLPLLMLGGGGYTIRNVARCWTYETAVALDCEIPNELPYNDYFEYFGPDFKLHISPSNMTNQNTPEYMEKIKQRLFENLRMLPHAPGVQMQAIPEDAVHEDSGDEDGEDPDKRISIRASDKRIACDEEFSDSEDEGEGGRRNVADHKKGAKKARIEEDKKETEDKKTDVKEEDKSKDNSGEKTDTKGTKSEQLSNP
T2 sequence (P56524 whole entry): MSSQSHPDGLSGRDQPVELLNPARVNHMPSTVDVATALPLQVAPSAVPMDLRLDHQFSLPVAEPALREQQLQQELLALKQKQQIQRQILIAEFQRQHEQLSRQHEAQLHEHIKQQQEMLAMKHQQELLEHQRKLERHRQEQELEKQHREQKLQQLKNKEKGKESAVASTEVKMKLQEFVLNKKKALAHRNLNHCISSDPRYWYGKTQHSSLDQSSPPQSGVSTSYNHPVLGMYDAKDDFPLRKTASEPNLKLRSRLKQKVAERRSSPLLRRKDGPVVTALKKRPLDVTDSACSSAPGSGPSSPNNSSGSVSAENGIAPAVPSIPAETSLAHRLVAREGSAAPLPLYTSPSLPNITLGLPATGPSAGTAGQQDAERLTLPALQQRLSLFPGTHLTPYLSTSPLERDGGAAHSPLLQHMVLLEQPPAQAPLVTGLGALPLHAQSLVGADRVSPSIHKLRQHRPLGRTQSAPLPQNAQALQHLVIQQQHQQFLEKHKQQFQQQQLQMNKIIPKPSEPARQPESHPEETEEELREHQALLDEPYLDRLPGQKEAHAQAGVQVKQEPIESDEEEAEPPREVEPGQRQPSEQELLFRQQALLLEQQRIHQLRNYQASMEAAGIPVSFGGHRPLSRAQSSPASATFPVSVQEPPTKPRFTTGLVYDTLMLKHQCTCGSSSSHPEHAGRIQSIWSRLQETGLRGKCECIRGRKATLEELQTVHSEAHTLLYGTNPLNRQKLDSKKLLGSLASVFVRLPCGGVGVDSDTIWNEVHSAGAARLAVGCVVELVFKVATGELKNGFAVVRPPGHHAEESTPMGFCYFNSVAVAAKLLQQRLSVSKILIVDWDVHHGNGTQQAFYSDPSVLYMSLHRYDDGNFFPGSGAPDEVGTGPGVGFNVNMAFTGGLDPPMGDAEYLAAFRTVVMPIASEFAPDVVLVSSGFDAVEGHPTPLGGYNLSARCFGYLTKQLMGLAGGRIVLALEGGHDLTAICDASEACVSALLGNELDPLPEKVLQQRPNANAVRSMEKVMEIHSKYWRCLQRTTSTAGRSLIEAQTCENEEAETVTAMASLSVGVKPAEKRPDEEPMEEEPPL

- IC50 [1]: 51.5 ± 10.5 µM
- IC50 [2]: 98.1 ± 35.6 µM
- IC50 [5]: 177 ± 17.5 µM
- IC50 [6]: 6.48 ± 2.11 µM
- HDAC6 preference (selectivity for HDAC6) ([6]; versus HDAC2, 4 and 8, from Table 1): 8 fold
Compound: O=C(O)CCCCC(S)CCS (racemic)
- IC50 [3]: 22.3 µM
- more active than rac-α-lipoic acid at HDAC8, Lechner et al.'s study [3]: at least 5 fold
- IC50 [4]: 27.9 µM
- IC50 [7, 16]: 1.7 µM
- more active than rac-α-lipoic acid at HDAC6, Lechner et al.'s study [7]: around 100 fold
- IC50 ([7]; read-out: IC50 at HDAC6 as reported by Lechner et al.): ~1 µM

Compound: O=C(O)CCCCC1CCSS1 (racemic) [rac-α-lipoic acid]
- IC50 ([1]; read-out: IC50 HDAC 8, IC50 ± SEM, three experiments in duplicates): 464 ± 83 µM
- IC50 ([2]; read-out: IC50 HDAC 2, IC50 ± SEM, three experiments in duplicates): 208 ± 4.2 µM
- IC50 [3]: 109 µM
- IC50 [4]: 391 µM
- IC50 [5]: 262 ± 37.8 µM
- IC50 [8]: 373 ± 13.9 µM
- IC50 ([6]; read-out: IC50 HDAC 6, IC50 ± SEM, three experiments in duplicates): 15.3 ± 4.6 µM
- IC50 [7, 16]: 191 µM
- IC50 ([9]; T47D cells, substrate Boc-Lys-AC-AMC, IC50 ± SEM, one experiment in triplicates): 1190 ± 67 µM
- IC50 [10]: 454 ± 15.2 µM
- IC50 [11]: 275 ± 22.5 µM

Compound: O=C(O)CCCCC1CCSS1 (stereo not drawn) [α-lipoic acid]
- expression of BCL-2, T47D [12]: loss or massive reduction in expression
- expression of BCL-2, MCF-7 [13]: loss or massive reduction in expression
- caspase activation, T47D [14]: 5–15%
- caspase activation, MCF-7 [15]: 5–15%

Compound: O=C(CCCCCCC(=O)Nc1ccccc1)NO [vorinostat]
- IC50 ([9]; Homo sapiens, T47D): 0.79 ± 0.07 µM
